Laboratory results as given in ChEMBL document CHEMBL2331293, “Attenuating Staphylococcus aureus virulence gene regulation: a medicinal chemistry perspective” (J Med Chem, 2013).
Positions of bridges follow the written chain, without caps; N, C: chain ends. Non-standard residues stand in square brackets, D forms with d. Residues, ends and D or L forms follow the SMILES beside them. *: point of attachment. X2 = O=C(c1ccccc1)c1ccc(OCCCC(=O)*)cc1; X1 = O=C(CCCOc1ccc(Cc2ccccc2)cc1)*; NMeF = CN[C@@H](Cc1ccccc1)C(=O)O; NMeL = CN[C@@H](CC(C)C)C(=O)O; NMeS = CN[C@@H](CO)C(=O)O; Abu = CC[C@H](N)C(=O)O; Dap = NC[C@H](N)C(=O)O; Ava = NCCCCC(=O)O; Mpa = O=C(O)CCS

Tests used:
[1] = Inhibition of Staphylococcus aureus AgrC1
[2] = Inhibition of Staphylococcus aureus AgrC3
[3] = tested on: Staphylococcus aureus; assay: Inhibition of Staphylococcus aureus AgrC1-mediated RNA3 promoter activation at 12 uM
[4] = Inhibition of Staphylococcus aureus AgrC1-mediated RNA3 promoter activation
[5] = Inhibition of Staphylococcus aureus AgrC2
[6] = Inhibition of Staphylococcus aureus AgrC4
[7] = Activation of Staphylococcus aureus AgrC1
[8] = Activation of Staphylococcus aureus AgrC4

IC50 [1]	IC50 [2]	IC50 [5]	Structure (SMILES)	further results
	160 nM		CC1CCCN(C(C(=O)Nc2ccc3c(c2)OCO3)c2ccccc2)C1 (stereo not given)	
	980 nM		CC1CCN(C(C(=O)Nc2ccc3c(c2)OCO3)c2ccccc2)CC1 (stereo not given)	
	720 nM		CC1CCN(C(C(=O)Nc2ccc(C(C)C)cc2)c2ccc3c(c2)OCO3)CC1 (stereo not given)	
	130 nM		CC1CCCN(C(C(=O)Nc2ccc3c(c2)OCCO3)c2ccccc2)C1 (stereo not given)	inhibition [3]: > 90%; IC50 [4]: 100 nM
	1260 nM		O=C(Nc1ccc2c(c1)OCO2)C(c1ccccc1)N1CCCCC1 (stereo not given)	
540 nM			CCCCc1oc2ccccc2c1C(=O)c1ccc(O)cc1	
	250 nM		CC(C)c1ccc(NC(=O)C(c2ccc3c(c2)OCO3)N2CCCCC2)cc1 (stereo not given)	
	1310 nM		COc1ccc(NC(=O)C(c2cc3c(cc2[N+](=O)[O-])OCO3)N2CC(C)CC(C)C2)cc1 (stereo not given)	
	980 nM		O=C(Nc1ccc2c(c1)OCO2)C(c1ccccc1)N1CCC(Cc2ccccc2)CC1 (stereo not given)	
780 nM			CCOC(=O)c1c(C)oc2cc(-c3cc(Br)c(O)c(Br)c3)ccc12	
5 nM	0.1 nM	5 nM	CC[C@H](C)[C@@H]1NC(=O)[C@H](Cc2ccccc2)NC(=O)[C@H](C)NC(=O)[C@@H](NC(C)=O)CSC(=O)[C@H](CCSC)NC1=O (Ac-CAFIM; thioester 1-C)	IC50 [6]: 5 nM
	240 nM	47 nM	CC[C@H](C)[C@@H]1NC(=O)[C@H](Cc2ccccc2)NC(=O)[C@H](CC(=O)O)NC(=O)[C@@H](NC(C)=O)CSC(=O)[C@H](CCSC)NC1=O (Ac-CDFIM; thioester 1-C)	EC50 [7]: 5800 nM
77 nM		238 nM	CC(=O)N[C@H]1CSC(=O)[C@H](Cc2ccccc2)NC(=O)[C@H](CC(C)C)NC(=O)CNC(=O)CNC1=O (Ac-CGGLF; thioester 1-C)	
189 nM		1160 nM	CC(=O)N[C@H]1CSC(=O)[C@H](Cc2ccccc2)NC(=O)[C@H](CC(C)C)NC(=O)[C@H](CO)NC(=O)CNC1=O (Ac-CGSLF; thioester 1-C)	
40 nM		194 nM	CC(=O)N[C@H]1CSC(=O)[C@H](Cc2ccccc2)NC(=O)[C@H](CC(C)C)NC(=O)CNC(=O)[C@H](CO)NC1=O (Ac-CSGLF; thioester 1-C)	
260 nM	4 nM	230 nM	CC(=O)N[C@H]1CSC(=O)[C@H](Cc2ccccc2)NC(=O)[C@H](CC(C)C)NC(=O)[C@H](CO)NC(=O)[C@H](CO)NC1=O (Ac-CSSLF; thioester 1-C)	IC50 [6]: 150 nM
> 30000 nM		> 30000 nM	CC(=O)N[C@H]1CSC(=O)[C@H](Cc2ccccc2)N(C)C(=O)[C@H](CC(C)C)NC(=O)[C@H](CO)NC(=O)[C@H](CO)NC1=O (Ac-CSSL[NMeF]; thioester 1-C)	
> 30000 nM		> 30000 nM	CC(=O)N[C@H]1CSC(=O)[C@H](Cc2ccccc2)NC(=O)[C@H](CC(C)C)N(C)C(=O)[C@H](CO)NC(=O)[C@H](CO)NC1=O (Ac-CSS[NMeL]F; thioester 1-C)	
319 nM		1050 nM	CC(=O)N[C@H]1CSC(=O)[C@H](Cc2ccccc2)NC(=O)[C@H](CC(C)C)NC(=O)[C@H](CO)N(C)C(=O)[C@H](CO)NC1=O (Ac-CS[NMeS]LF; thioester 1-C)	
930 nM	10 nM	8 nM	CC[C@H](C)[C@@H]1NC(=O)[C@H](Cc2ccccc2)NC(=O)[C@H](Cc2ccc(O)cc2)NC(=O)[C@@H](NC(C)=O)CSC(=O)[C@H](CCSC)NC1=O (Ac-CYFIM; thioester 1-C)	IC50 [6]: 4100 nM
1140 nM		50700 nM	CC(=O)N[C@H]1CSC(=O)[C@H](Cc2ccccc2)NC(=O)[C@H](CC(C)C)NC(=O)CCCCNC1=O (Ac-C[Ava]LF; thioester 1-C)	
639 nM		7880 nM	CC(=O)N[C@H]1CSC(=O)[C@H](Cc2ccccc2)NC(=O)[C@H](CC(C)C)NC(=O)[C@H](CO)NC(=O)[C@H](CO)N(C)C1=O (Ac-C[NMeS]SLF; thioester 1-C)	
1390 nM		167000 nM	CC(=O)N[C@H]1CNC(=O)[C@H](Cc2ccccc2)NC(=O)[C@H](CC(C)C)NC(=O)[C@H](CO)NC(=O)[C@H](CO)NC1=O (Ac-[Dap]SSLF; lactam 1-C)	
295 nM		19 nM	CC[C@H](C)[C@@H]1NC(=O)[C@H](Cc2ccccc2)NC(=O)[C@H](C)NC(=O)[C@@H](NC(=O)[C@@H](NC(=O)[C@H](CO)NC(=O)CCCOc2ccc(Cc3ccccc3)cc2)[C@@H](C)O)CSC(=O)[C@H](CCSC)NC1=O (X1-STCAFIM; thioester 3-C)	
303 nM		18 nM	CC[C@H](C)[C@@H]1NC(=O)[C@H](Cc2ccccc2)NC(=O)[C@H](C)NC(=O)[C@@H](NC(=O)[C@@H](NC(=O)[C@H](CO)NC(=O)CCCOc2ccc(C(=O)c3ccccc3)cc2)[C@@H](C)O)CSC(=O)[C@H](CCSC)NC1=O (X2-STCAFIM; thioester 3-C)	
1680 nM		47300 nM	CC(C)C[C@@H]1NC(=O)[C@H](CO)NC(=O)[C@H](CO)NC(=O)CCSC(=O)[C@H](Cc2ccccc2)N(C)C1=O ([Mpa]SSL[NMeF]; thioester 1-C)	
1290 nM			CCc1oc2ccccc2c1C(=O)c1ccc(O)cc1 [BENZARONE]	
130 nM			CCc1oc2ccccc2c1C(=O)c1cc(Br)c(O)c(Br)c1 [BENZBROMARONE]	
< 1000 nM			CC(C)c1ccc(S(=O)(=O)c2nnn3c2nc(O)c2ccccc23)cc1 [SAVIRIN]	

Structure (SMILES)	IC50 [1]	IC50 [2]	IC50 [5]	further results
CCCCCCCc1cc(O)c2ccccc2[n+]1[O-]	1300 nM			
CC[C@H](C)[C@@H]1NC(=O)[C@H](Cc2ccccc2)NC(=O)[C@H](C)NC(=O)[C@@H](NC(=O)[C@@H](NC(=O)[C@H](CO)NC(=O)[C@@H](N)Cc2ccc(O)cc2)[C@@H](C)O)CSC(=O)[C@H](CCSC)NC1=O (H-YSTCAFIM; thioester 4-C)	5 nM	0.3 nM	8 nM	IC50 [6]: 3 nM
CC[C@H](C)[C@@H]1NC(=O)[C@H](Cc2ccccc2)NC(=O)[C@H](CC(=O)O)NC(=O)[C@@H](NC(=O)[C@@H](NC(=O)[C@H](CO)NC(=O)[C@@H](N)Cc2ccc(O)cc2)[C@@H](C)O)CSC(=O)[C@H](CCSC)NC1=O (H-YSTCDFIM; thioester 4-C)		3 nM	25 nM	EC50 [8]: 26000 nM; EC50 [7]: 28 nM
CC[C@@H]1NC(=O)[C@@H](NC(=O)[C@@H](NC(=O)[C@H](CO)NC(=O)[C@@H](N)Cc2ccc(O)cc2)[C@@H](C)O)CSC(=O)[C@H](CCSC)NC(=O)[C@H]([C@@H](C)CC)NC(=O)[C@H](Cc2ccccc2)NC1=O (H-YSTC[Abu]FIM; thioester 4-C)	137 nM		2.8 nM	
